Publication PMC8151143

Biological target: T1, rPtCLec2 (PtCLec2) (Portunus trituberculatus, UniProt A0A7S5QMV0)
T1 construct: gene CLec2; mature peptide (signal peptide residues 1-19 removed) in pET-32a, N-terminal Trx and His tags kept, about 50 kDa; single CRD with QPD motif
T1 sequence (A0A7S5QMV0 20-267): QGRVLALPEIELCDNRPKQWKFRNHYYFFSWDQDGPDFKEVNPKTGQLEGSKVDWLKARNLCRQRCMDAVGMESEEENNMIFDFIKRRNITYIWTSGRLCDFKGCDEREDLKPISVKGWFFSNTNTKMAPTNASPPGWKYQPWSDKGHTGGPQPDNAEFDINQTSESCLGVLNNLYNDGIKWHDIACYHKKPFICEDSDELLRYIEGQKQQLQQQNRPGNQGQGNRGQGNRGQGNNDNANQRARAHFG
Test: inhibition of agglutination of FITC-labelled Pseudomonas aeruginosa, fluorescence microscopy
Assay type: binding
Settings: 10 mM CaCl2; 25-200 mM sugar tested; rPtCLec2 100 ug/mL; 30 min preincubation; indirect (competition) read-out

SMILES | minimum concentration of carbohydrate that could completely inhibit bacterial agglutinating activity
OC[C@H]1OC(O)[C@H](O)[C@@H](O)[C@H]1O (stereo partly drawn) [D-galactose] | inhibited with the increasing concentration of LPS, D-galactose, and D-mannose
OC[C@H]1OC(O)[C@@H](O)[C@@H](O)[C@@H]1O (stereo partly drawn) [D-mannose] | inhibited with the increasing concentration of LPS, D-galactose, and D-mannose
